Data as given in PubChem BioAssay (NCI).
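48-hour exposure; five concentrations; linearly interpolated endpoints. At the GI50, growth is halved. At the TGI there is no net growth.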

How the values were obtained:
Assay in all cases: growth of human tumour cells (NCI), 48 h
786-0 renal = test system: 786-0 renal
A498 renal = test system: A498 renal
A549 NSCLC = test system: A549 NSCLC
ACHN renal = test system: ACHN renal
BT-549 breast = test system: BT-549 breast
CAKI-1 renal = test system: CAKI-1 renal
CCRF-CEM leukemia = test system: CCRF-CEM leukemia
COLO 205 colon = test system: COLO 205 colon
DU-145 prostate = test system: DU-145 prostate
EKVX NSCLC = test system: EKVX NSCLC
HCC-2998 colon = test system: HCC-2998 colon
HCT-116 colon = test system: HCT-116 colon
HCT-15 colon = test system: HCT-15 colon
HL-60(TB) leukemia = test system: HL-60(TB) leukemia
HOP-62 NSCLC = test system: HOP-62 NSCLC
HOP-92 NSCLC = test system: HOP-92 NSCLC
HS 578T breast = test system: HS 578T breast
HT29 colon = test system: HT29 colon
IGROV1 ovarian = test system: IGROV1 ovarian
K-562 leukemia = test system: K-562 leukemia
KM12 colon = test system: KM12 colon
LOX IMVI melanoma = test system: LOX IMVI melanoma
M14 melanoma = test system: M14 melanoma
MALME-3M melanoma = test system: MALME-3M melanoma
MCF7 breast = test system: MCF7 breast
MDA-MB-231 breast = test system: MDA-MB-231 breast
MDA-MB-435 = test system: MDA-MB-435
MOLT-4 leukemia = test system: MOLT-4 leukemia
NCI-H226 lung = test system: NCI-H226 lung
NCI-H23 lung = test system: NCI-H23 lung
NCI-H460 lung = test system: NCI-H460 lung
NCI/ADR-RES ovarian = test system: NCI/ADR-RES ovarian
OVCAR-3 ovarian = test system: OVCAR-3 ovarian
OVCAR-4 ovarian = test system: OVCAR-4 ovarian
OVCAR-5 ovarian = test system: OVCAR-5 ovarian
OVCAR-8 ovarian = test system: OVCAR-8 ovarian
PC-3 prostate = test system: PC-3 prostate
RPMI-8226 leukemia = test system: RPMI-8226 leukemia
RXF 393 renal = test system: RXF 393 renal
SF-268 CNS = test system: SF-268 CNS
SF-295 CNS = test system: SF-295 CNS
SF-539 CNS = test system: SF-539 CNS
SK-MEL-2 melanoma = test system: SK-MEL-2 melanoma
SK-MEL-28 melanoma = test system: SK-MEL-28 melanoma
SK-MEL-5 melanoma = test system: SK-MEL-5 melanoma
SK-OV-3 ovarian = test system: SK-OV-3 ovarian
SNB-19 CNS = test system: SNB-19 CNS
SNB-75 CNS = test system: SNB-75 CNS
SR leukemia = test system: SR leukemia
SW-620 colon = test system: SW-620 colon
T-47D breast = test system: T-47D breast
TK-10 renal = test system: TK-10 renal
U251 CNS = test system: U251 CNS
UACC-257 melanoma = test system: UACC-257 melanoma
UACC-62 melanoma = test system: UACC-62 melanoma
UO-31 renal = test system: UO-31 renal
NCI-H522 lung = test system: NCI-H522 lung
SN12C renal = test system: SN12C renal

`CCN(CC)C(=O)C[n+]1c2ccccc2n2cc(N)ccc21` was tested, and the TGI (786-0 renal) was greater than 100 µM, the TGI (A498 renal) was greater than 100 µM and the TGI (A549 NSCLC) was greater than 100 µM. The TGI (ACHN renal) was greater than 100 µM, the TGI (BT-549 breast) was greater than 100 µM and the TGI (CAKI-1 renal) was greater than 100 µM. The TGI (CCRF-CEM leukemia) was greater than 100 µM, the TGI (COLO 205 colon) was greater than 100 µM and the TGI (DU-145 prostate) was greater than 100 µM. The TGI (EKVX NSCLC) was greater than 100 µM, the TGI (HCC-2998 colon) was greater than 100 µM and the TGI (HCT-116 colon) was greater than 100 µM. The TGI (HCT-15 colon) was greater than 100 µM, the TGI (HL-60(TB) leukemia) was greater than 100 µM and the TGI (HOP-62 NSCLC) was greater than 100 µM. The TGI (HOP-92 NSCLC) was greater than 100 µM, the TGI (HS 578T breast) was greater than 100 µM and the TGI (HT29 colon) was greater than 100 µM. The TGI (IGROV1 ovarian) was greater than 100 µM, the TGI (K-562 leukemia) was greater than 100 µM and the TGI (KM12 colon) was greater than 100 µM. The TGI (LOX IMVI melanoma) was greater than 100 µM, the TGI (M14 melanoma) was greater than 100 µM and the TGI (MALME-3M melanoma) was greater than 100 µM. For the same compound, the TGI (MCF7 breast) was greater than 100 µM, the TGI (MDA-MB-231 breast) was greater than 100 µM and the TGI (MDA-MB-435) was greater than 100 µM. The TGI (MOLT-4 leukemia) was greater than 100 µM, the TGI (NCI-H226 lung) was greater than 100 µM and the TGI (NCI-H23 lung) was greater than 100 µM. The TGI (NCI-H460 lung) was greater than 100 µM, the TGI (NCI/ADR-RES ovarian) was greater than 100 µM and the TGI (OVCAR-3 ovarian) was greater than 100 µM. For the same compound, the TGI (OVCAR-4 ovarian) was greater than 100 µM, the TGI (OVCAR-5 ovarian) was greater than 100 µM and the TGI (OVCAR-8 ovarian) was greater than 100 µM. It also gave a TGI (PC-3 prostate) greater than 100 µM, a TGI (RPMI-8226 leukemia) greater than 100 µM and a TGI (RXF 393 renal) greater than 100 µM. It also gave a TGI (SF-268 CNS) greater than 100 µM, a TGI (SF-295 CNS) greater than 100 µM and a TGI (SF-539 CNS) greater than 100 µM. For the same compound, the TGI (SK-MEL-2 melanoma) was greater than 100 µM, the TGI (SK-MEL-28 melanoma) was greater than 100 µM and the TGI (SK-MEL-5 melanoma) was greater than 100 µM. The TGI (SK-OV-3 ovarian) was greater than 100 µM, the TGI (SNB-19 CNS) was greater than 100 µM and the TGI (SNB-75 CNS) was greater than 100 µM. It also gave a TGI (SR leukemia) greater than 100 µM, a TGI (SW-620 colon) greater than 100 µM and a TGI (T-47D breast) greater than 100 µM. It also gave a TGI (TK-10 renal) greater than 100 µM, a TGI (U251 CNS) greater than 100 µM and a TGI (UACC-257 melanoma) greater than 100 µM. For the same compound, the TGI (UACC-62 melanoma) was greater than 100 µM and the TGI (UO-31 renal) was greater than 100 µM.

With `N=C(N)N=Nc1ccc(NN=C(N)N)c2c1ncc1c2nc2sccn21` the GI50 (786-0 renal) was 29.2 µM, the TGI (786-0 renal) was greater than 100 µM and the GI50 (A498 renal) was 24.2 µM. For the same compound, the TGI (A498 renal) was 80 µM, the GI50 (A549 NSCLC) was 42.7 µM and the TGI (A549 NSCLC) was greater than 100 µM. For the same compound, the GI50 (ACHN renal) was 22.3 µM, the TGI (ACHN renal) was 51.3 µM and the GI50 (BT-549 breast) was 16.5 µM. It also gave a TGI (BT-549 breast) of 32.9 µM, a GI50 (CCRF-CEM leukemia) of 20.8 µM and a TGI (CCRF-CEM leukemia) greater than 100 µM. It also gave a GI50 (COLO 205 colon) of 40.6 µM, a TGI (COLO 205 colon) greater than 100 µM and a GI50 (DU-145 prostate) of 15.3 µM. The TGI (DU-145 prostate) was 44.3 µM, the GI50 (EKVX NSCLC) was 21.6 µM and the TGI (EKVX NSCLC) was 45.8 µM. The GI50 (HCC-2998 colon) was 65.7 µM, the TGI (HCC-2998 colon) was greater than 100 µM and the GI50 (HCT-116 colon) was 25.8 µM. For the same compound, the TGI (HCT-116 colon) was greater than 100 µM, the GI50 (HCT-15 colon) was 16.7 µM and the TGI (HCT-15 colon) was 59.3 µM. For the same compound, the GI50 (HL-60(TB) leukemia) was 73.6 µM, the TGI (HL-60(TB) leukemia) was greater than 100 µM and the GI50 (HOP-62 NSCLC) was 29.6 µM. The TGI (HOP-62 NSCLC) was greater than 100 µM, the GI50 (HOP-92 NSCLC) was 25.5 µM and the TGI (HOP-92 NSCLC) was 65.4 µM. For the same compound, the GI50 (HS 578T breast) was 18.9 µM, the TGI (HS 578T breast) was 63.4 µM and the GI50 (HT29 colon) was 55.6 µM. It also gave a TGI (HT29 colon) greater than 100 µM, a GI50 (IGROV1 ovarian) of 8.7 µM and a TGI (IGROV1 ovarian) greater than 100 µM. For the same compound, the GI50 (K-562 leukemia) was 31.4 µM, the TGI (K-562 leukemia) was greater than 100 µM and the GI50 (KM12 colon) was 21.9 µM. For the same compound, the TGI (KM12 colon) was greater than 100 µM, the GI50 (LOX IMVI melanoma) was 21.1 µM and the TGI (LOX IMVI melanoma) was greater than 100 µM. For the same compound, the GI50 (M14 melanoma) was 22.9 µM, the TGI (M14 melanoma) was 80 µM and the GI50 (MALME-3M melanoma) was 21.9 µM. It also gave a TGI (MALME-3M melanoma) of 45.9 µM, a GI50 (MCF7 breast) of 23 µM and a TGI (MCF7 breast) greater than 100 µM. It also gave a GI50 (MDA-MB-231 breast) of 33 µM, a TGI (MDA-MB-231 breast) of 66.6 µM and a GI50 (MDA-MB-435) of 19.5 µM. The TGI (MDA-MB-435) was 52.1 µM, the GI50 (MOLT-4 leukemia) was 80.3 µM and the TGI (MOLT-4 leukemia) was greater than 100 µM. For the same compound, the GI50 (NCI-H226 lung) was 32.3 µM, the TGI (NCI-H226 lung) was greater than 100 µM and the GI50 (NCI-H23 lung) was 32.1 µM. The TGI (NCI-H23 lung) was greater than 100 µM, the GI50 (NCI-H460 lung) was 24 µM and the TGI (NCI-H460 lung) was greater than 100 µM. The GI50 (NCI-H522 lung) was 22.1 µM, the TGI (NCI-H522 lung) was greater than 100 µM and the GI50 (NCI/ADR-RES ovarian) was 28.6 µM. For the same compound, the TGI (NCI/ADR-RES ovarian) was greater than 100 µM, the GI50 (OVCAR-3 ovarian) was 18.8 µM and the TGI (OVCAR-3 ovarian) was greater than 100 µM. The GI50 (OVCAR-4 ovarian) was 22.6 µM, the TGI (OVCAR-4 ovarian) was 74.2 µM and the GI50 (OVCAR-5 ovarian) was 27.8 µM. The TGI (OVCAR-5 ovarian) was 72.1 µM, the GI50 (OVCAR-8 ovarian) was 27.3 µM and the TGI (OVCAR-8 ovarian) was greater than 100 µM. The GI50 (PC-3 prostate) was 27 µM, the TGI (PC-3 prostate) was 99.5 µM and the GI50 (RPMI-8226 leukemia) was 14 µM. It also gave a TGI (RPMI-8226 leukemia) of 91.2 µM, a GI50 (RXF 393 renal) of 8.98 µM and a TGI (RXF 393 renal) of 34.6 µM. It also gave a GI50 (SF-268 CNS) of 10.7 µM, a TGI (SF-268 CNS) of 35.9 µM and a GI50 (SF-295 CNS) of 32 µM. It also gave a TGI (SF-295 CNS) greater than 100 µM, a GI50 (SF-539 CNS) of 21 µM and a TGI (SF-539 CNS) of 94.8 µM. For the same compound, the GI50 (SK-MEL-28 melanoma) was 30.6 µM, the TGI (SK-MEL-28 melanoma) was 95 µM and the GI50 (SK-MEL-5 melanoma) was 15.7 µM. The TGI (SK-MEL-5 melanoma) was 37.7 µM, the GI50 (SK-OV-3 ovarian) was 93.4 µM and the TGI (SK-OV-3 ovarian) was greater than 100 µM. The GI50 (SN12C renal) was 36.4 µM, the TGI (SN12C renal) was greater than 100 µM and the GI50 (SNB-19 CNS) was greater than 100 µM. For the same compound, the TGI (SNB-19 CNS) was greater than 100 µM, the GI50 (SNB-75 CNS) was 25.9 µM and the TGI (SNB-75 CNS) was greater than 100 µM. For the same compound, the GI50 (SR leukemia) was greater than 100 µM, the TGI (SR leukemia) was greater than 100 µM and the GI50 (SW-620 colon) was 23.9 µM. The TGI (SW-620 colon) was 67.8 µM, the GI50 (T-47D breast) was greater than 100 µM and the TGI (T-47D breast) was greater than 100 µM. For the same compound, the GI50 (TK-10 renal) was 18 µM, the TGI (TK-10 renal) was 35.5 µM and the GI50 (U251 CNS) was 23.2 µM. It also gave a TGI (U251 CNS) greater than 100 µM, a GI50 (UACC-257 melanoma) of 18.6 µM and a TGI (UACC-257 melanoma) of 40.6 µM. For the same compound, the GI50 (UACC-62 melanoma) was 21.3 µM, the TGI (UACC-62 melanoma) was 57.2 µM and the GI50 (UO-31 renal) was 23.7 µM. For the same compound, the TGI (UO-31 renal) was greater than 100 µM.
